Test results published in patent publication US7435727B2, “Method for isolating an intestinal cholesterol binding protein” (Sanofi-Aventis Deutschland GmbH, priority 2002, dated 2008).

Legend:
[1] = system: 145 kDa binding protein for cholesterol absorption inhibitors; test: Photoaffinity labeling of small intestinal BBMV with [3H]C-1 in the presence of competitor; conditions: rabbit small intestinal BBMV, increasing concentrations of competitor
Method: 8 Samples of rabbit ileal brush border membrane vesicles (250 μg of protein) were incubated with 66 nM (0.3 μCi) of [^3H]C-1 in 10 mM Tris/Hepes buffer (pH 7.4)/100 mM NaCl/100 mM mannitol for 30 min at 20° C. in the dark. After irradiation for 30 sec at 254 nm in a Rayonet RPR 100 photochemical reactor equipped with 4 RPR 2537 Å lamps (The Southern Ultraviolet Company, Hamden, Conn., USA) the samples were collected and after centrifugation the membrane vesicles were resuspended in 2 ml 10 mM Tris/Hepes buffer (pH 7.4)/300 mM mannitol and centrifugated after 20 min at 20° C. This procedure was repeated three times. The resulting pellet was solubilized with 2 ml “solubilization buffer”. After centrifugation, a 40 μl aliquot of the supernatant was removed and analyzed by SDS PAGE and subsequent slicing of the gel for incorporation of radioactivity into membrane proteins.
(§1) For a one-step purification of the target-protein for cholesterol absorption inhibitors we have coupled the biotin-containing photolabile group N-(biotinyl)-4-azidophenyl alanine via a spacer to the para-position of the N-phenyl or benzylamino ring of 2-azetidinone cholesterol absorption inhibitors.

[2] = system: 145 kDa binding protein for cholesterol absorption inhibitors; test: Photoaffinity labeling with biotin-tagged C-4 and extraction with streptavidin beads; design: species or system rabbit
Method: 10 Samples of rabbit ileal brush border membrane vesicles (200 µg of protein) were incubated with 200 μM of the biotin-tagged cholesterol inhibitor C-4 in 10 mM Tris/Hepes buffer (pH 7.4)/100 mM NaCl/100 mM mannitol for 30 min in the dark at 20° C. followed by irradiation at 254 nm for 30 sec in a Rayonet RPR-100 photochemical reactor equipped with 4 RPR 2537 Å-lamps. After collecting, the vesicles were washed 3 times with 2 ml Tris/Hepes buffer (pH 7.4)/300 mM mannitol. The final pellet was suspended in 2 ml of “solubilization buffer” for 1 hour at 4° C. After centrifugation, the clear supernatant was mixed with 0.5 ml of streptavidin-agarose beads and kept under stirring at 4° C. for 2 hours. After centrifugation, the beads were incubated with 2 ml 10 mM Tris/Hepes buffer (pH 7.4)/300 mM mannitol/1% n-octylglucoside/4 mM PMSF/4 mM iodacetamide/4 mM EDTA/for 10 min at 4° C. followed by centrifugation. After repeating this procedure twice, proteins were eluted from the streptavidin-agarose beads with 3 portions a 2 ml of the above buffer containing 5 mM biotin. From all eluates aliquots were removed for the determination of the enzymatic activity of aminopeptidase N and sucrase and for analysis by SDS-PAGE. For final purification the biotin eluates containing the covalently modified 145 kDa binding protein for cholesterol absorption inhibitors was achieved by preparative SDS gel electrophoresis as described above.
Rabbit small intestinal BBMV were incubated with 200 μM of C-4 and crosslinking was achieved by ultraviolet irradiation at 254 nm. After solubilization the covalently modified proteins containing the biotin-tagged 2-azetidinone cholesterol absorption inhibitors were extracted with streptavidin-beads. After intensive washing bound proteins were eluted with a 10 mM solution of biotin and analyzed by SDS-PAGE. […] Therefore, the 145 kDa binding protein could only be purified from those anatomical sites where intestinal cholesterol absorption occurs, the duodenum, jejunum and ileum. […]

[3] = system: intestinal cholesterol absorption; test: Inhibition of intestinal cholesterol absorption (modified Zilversmit/Hughes method); assay type: in vivo; conditions: NMRI mice, application of the biotin-tagged photoaffinity label
Method: Intestinal cholesterol absorption was determined by a modification of the Zilversmit/Hughes method. Male NMRI mice (Charles River Deutschland GmbH, Salzfeld, Germany) kept on regular chow (Altronin®, Lage, Germany) were starved for 12 hours. Then, 0.5 ml of a solution of 0.5% methylcellulose/5% Solutol (BASF, Ludwigshafen, Germany) as vehicle with or without 3 mg of the respective cholesterol absorption inhibitor were applied by gavage to each animal followed by 0.25 ml of Intralipid® (Pharmacia & Upjohn, Erlangen, Germany) solution containing 0.24 μCi [^14C]cholesterol and 0.25 μCi [^3H]sitosterol. The animals (five mice per group) were kept on metabolism cages and feces were collected. After 24 hours the animals were killed and the radioactivity in the feces and the liver was determined by combustion analysis.
as §1

SMILES	extent of labeling of the 145 kDa-protein by [3H]C-1 [1]	145 kDa protein retarded by streptavidin beads after labeling of membranes from other organs ([2]; BBMV from stomach, cecum, colon, rectum, kidney, liver or adipocytes)	proteins retained by the streptavidin-beads after crosslinking ([2]; rabbit small intestinal BBMV, 200 μM C-4, ultraviolet irradiation at 254 nm, SDS-PAGE)	intestinal cholesterol absorption [3]	amount of 145 kDa protein extractable with streptavidin beads ([2]; competitor present during photolabeling with C-4, 200 μM for cholesterol absorption inhibitors)
COc1ccc(C2C(CC[C@H](O)c3ccccc3)C(=O)N2c2ccc(NC(=O)CCCCNC(=O)C(Cc3ccc(N=[N+]=[N-])cc3)NC(=O)CCCCC3SCC4NC(=O)NC43)cc2)cc1 (some centres unmarked) [C-4, 5-(2-Oxo-hexahydro-thieno[3,4-d]imidazol-6-yl)-pentanoic acid-[2-(4-azido-phenyl)-1-(4-{4-[3-(3-hydroxy-3-phenyl-propyl)-2-(4-methoxy-phenyl)4-oxo-azetidin-1-yl]-phenylcarbamoyl}-butylcarbamoyl)-ethyl]-amid]	concentration-dependent decrease	no 145 kDa protein was retarded by streptavidin beads	Predominantly one protein of Mr 145 kDa was retained	dose-dependently inhibited	–
O=C1[C@H](CC[C@H](O)c2ccc(F)cc2)[C@@H](c2ccc(O)cc2)N1c1ccc(F)cc1 [Ezetimibe, reference compound]	–	–	–	–	reduced
